Source: patent EP4129319A1, “PORE-FORMING ANTIMICROBIAL PEPTIDES” (priority 2021, dated 2023)
Where two headings read alike, the source gives them in different places. Ends that are not written are not given here.

Tests used:
Calcein leakage assay = assay type: biochemical; conditions: for Extent of leakage (in percentage) at increasing peptide-to-lipid ratio (mol/mol) 1:50 / Extent of leakage (in percentage) at increasing peptide-to-lipid ratio (mol/mol) 1:100 / Extent of leakage (in percentage) at increasing peptide-to-lipid ratio (mol/mol) 1:20: calcein leakage, POPC:POPG (1:1 mol/mol) LUVs; for Extent of leakage (in percentage) at increasing peptide-to-lipid ratio (mol/mol) 1:50: peptide-to-lipid ratio 1:50 (mol/mol); for Extent of leakage (in percentage) at increasing peptide-to-lipid ratio (mol/mol) 1:100: peptide-to-lipid ratio 1:100 (mol/mol); for calcein / vesicle leakage, pore-forming ability (in words): POPC:POPG (1:1) LUVs; for Extent of leakage (in percentage) at increasing peptide-to-lipid ratio (mol/mol) 1:20: peptide-to-lipid ratio 1:20 (mol/mol)
Protocol: (§1) Chemicals. […] (Prague, Czech Republic), and Caslo ApS (Kongens Lyngby, Denmark). […] The bacterial stock was stored at -80°C.
Calcein leakage assay. Pore-forming activity of the peptides was tested by their ability to leak the self-quenching fluorescent dye calcein entrapped within POPC:POPG (1:1 mol/mol) large unilamellar vesicles (LUVs). After mixing DiD to the lipid mixture (in the ratio 1:500 mol/mol), a thin lipid film was created by evaporating of the chloroform, traces of which were removed by desiccating overnight. The lipid film was then dissolved in calcein buffer, followed by vigorous vortexing. The lipid suspension was subsequently subjected to 10 freeze-thaw cycles. To obtain uniform LUVs, the sample was passed 50 times back and forth through an extruder stacked with 100 nm pore size polycarbonate membrane filter. Afterwards, the untrapped calcein was removed on a HiTrap Desalting Column (with Sephadex G-25 Superfine resin) by washing with PBS buffer. The concentration of the lipid suspension was then adjusted to 0.02 mM. The concentration of the peptide solution was 0.1 mM. The inventors monitored the peptide-induced release of calcein from LUVs by the increase in fluorescence intensity after adding increasing amounts of peptides to the LUVs under constant stirring at 25 °C. The investigated range of peptide/lipid molecular ratio was from 1:100 to 1:10. The excitation and emission wavelengths were set to 495 nm and 520 nm, respectively. Maximum fluorescence intensity was obtained by disrupting all the vesicles in the end by adding 10% Triton X-100. Experiments were performed in triplicates with independently prepared lipid vesicles.

[1] = tested on: Gram-negative Escherichia coli TOP10 strain; assay type: cell-based; conditions: broth microdilution assay; E. coli TOP10
Protocol: as §1
(§2) Broth microdilution assay. Antimicrobial activity of the peptides was investigated against Gram-negative Escherichia coli TOP10 strain and Gram-positive Staphylococcus carnosus CCM 4838T using broth microdilution assay, based on which the inventors determined the bacterial minimum inhibition concentration (MIC). After cross streaking with bacteria, the petri dishes (with MHA) were incubated for 24 h at 37 °C. Overnight grown cultures were then sub-cultured for 4-6 h at 37 °C in test tubes containing MHB. The sub-cultured solutions were subsequently diluted to a standard concentration of 10^6 colony forming units (CFU) per mL. Cell counts were determined by measuring the optical density at 600 nm. In a flat-bottomed 96 well plate, the inventors prepared a dilution series for the peptides and for the reference antibiotic ampicillin from 50 to 0.1 µM concentration, which was then inoculated with bacteria and incubated for 24 h at 37 °C. Growth control wells were free from peptides or ampicillin to show the viability of the bacteria, and sterility control wells were free from bacterial inoculation to verify the sterility of the medium. The bacterial growth was visually evaluated based on the turbidity. MIC was determined as the lowest concentrated well where no visible bacterial growth was observed. To test the bacteriostatic or bacteriocidal activity of the peptides, 50 µl solution from the highest concentrated well (i.e., 50 µM) was transferred to a test tube containing 4 mL sterile MHB and incubated for 24 h at 37 °C under constant stirring. Streaking of the same solution was done on MHA containing petri dishes and incubated for 24 h at 37 °C to confirm the morphology of the colonies grown. Experiments were performed in triplicates.

[2] = tested on: Gram-positive Staphylococcus carnosus CCM 4838T; assay type: cell-based; conditions: for Antibacterial activity (MIC in µM) S. carnosus: CCM 4838
Protocol: as §1, §2

[3] = tested on: human red blood cells (HRBCs); assay type: cell-based
Protocol: as §1
Hemolysis assay. Hemolytic toxicity of the peptides was evaluated from their ability to lyse the fresh human red blood cells (HRBCs) collected from the University Hospital (Brno, Czech Republic). To obtain the erythrocyte pellets, the blood samples were centrifuged twice at 700×g and subsequently, once at 1000×g, each for 8 min. at 4 °C, which was followed by thorough washing with PBS. Resuspension of the pellets was done in PBS to obtain 0.5% (vol/vol) RBC suspension. In a well plate with 96 V-shaped bottom wells, the peptides were added in a dilution series from 0.1 to 50 µM concentration. Subsequently, HRBC suspension was added in each well. Negative control wells contained only PBS and HRBC suspension without any peptide (i.e., 0% lysis), and positive control wells included 5 µM melittin in the HRBC suspension. After incubation for 1 h at 37 °C, the well plates were centrifuged at 1000×g for 10 min. at 4 °C. Subsequently, the supernatant was collected in a flat-bottomed well plate and the optical density of the released hemoglobin was measured for each well at 415 nm wavelength. The calculated absorbances from the wells were then normalized against the averaged absorbances of the positive and the negative control wells. EC50 value was calculated from the normalized absorbances indicating 50% hemolysis of HRBCs. Experiments were performed in triplicates with three independent blood samples.

[4] = tested on: human dermal fibroblast (HDF) cell lines; test: Neutral red uptake assay (cytotoxicity); assay type: cell-based
Protocol: Neutral red uptake assay. To evaluate the cytotoxicity of the peptides against human dermal fibroblast (HDF) cell lines, the inventors purchased the neutral red uptake assay from Essence Line (Praha, Czech Republic). The initial cell culture was sub-cultured in supplemented Dulbecco's Modified Eagle Medium (DMEM) and diluted to a cell density of 1 × 10^5 cells/mL. The diluted culture was then seeded into the wells (1 × 10^4

[5] = hemolysis assay, HRBCs, read-out: Toxicity (EC50 in µM) HRBCs

Substance | Extent of leakage (in percentage) at increasing peptide-to-lipid ratio (mol/mol) 1:50 (Calcein leakage assay) | Extent of leakage (in percentage) at increasing peptide-to-lipid ratio (mol/mol) 1:100 (Calcein leakage assay) | Antibacterial activity (MIC in µM) E. coli TOP10 [1] | antimicrobial activity against S. carnosus (in words) [2] | Antibacterial activity (MIC in µM) S. carnosus [2] | EC50 [3, 5] | calcein / vesicle leakage, pore-forming ability (in words) (Calcein leakage assay) | MIC against S. carnosus ([2]; 24 h at 37 °C, dilution series 50 to 0.1 µM) | times higher MIC than that of ampicillin, S. carnosus ([2]; ratio to ampicillin) | EC50 [3] | EC50 [4] | Extent of leakage (in percentage) at increasing peptide-to-lipid ratio (mol/mol) 1:20 (Calcein leakage assay) | EC50 ([3]; 1 h)
KKKKLRRILRRLFQFINQLDNQLQDIKQNK-NH2 [RDFA2i+9-NH2-Kter] | 100.7 ± 1.0 percentage | 76.0 ± 3.3 percentage | 0.2 µM | more effective against S. carnosus | 0.4 µM | 49 µM |  |  |  |  |  |  | 
KKKKVKKVVKKVFSFVDSVDSDVSDVKKKK-NH2 [KDFC16+9SV-NH2] |  |  | 25 µM |  |  |  | did not cause calcein leakage | 0.4 µM | 4 | > 50 µM | > 150 µM |  | 
KQKKLKKFFNQLIQLINQLFNQLDDFNQNK [KDFB12] | 98.2 ± 0.7 percentage | 79.4 ± 3.7 percentage | 6.3 µM |  | 6.3 µM |  |  |  |  | > 50 µM | 20 µM | 101.5 ± 0.6 percentage | 
NQKKLQNILNKLFKFIDDLINQLQNIKKQN [KDFA9] | 92.0 ± 0.3 percentage | 62.6 ± 5.2 percentage | > 50 µM |  | > 50 µM |  | retained |  |  | > 50 µM |  | 102.0 ± 1.4 percentage | 
RRRRLKKILKKLFQFINQLDNQLQDIRQNR-NH2 [KDFA2i+9-NH2-Rter] | 98.8 ± 1.2 percentage | 65.5 ± 4.2 percentage | 0.4 µM |  | 0.8 µM | 6.9 µM |  |  |  |  |  | 103.3 ± 1.2 percentage | 
RRRRLRRILRRLFQFINQLDNQLQDIRQNR-NH2 [RDFA2i+9-NH2] | 101.1 ± 0.8 percentage | 65.8 ± 4.1 percentage | 1.6 µM |  | 0.8 µM |  |  |  |  | 0.9 µM | 16 µM |  | 0.9 µM
